Converted amounts (≈) assume the structure as drawn. The source made the active and inactive calls. The rule behind the calls is not given here.
Legend:
[1] = Antioxidant activity assessed as DPPH radical scavenging activity after 30 mins; format: functional
Bugula neritina [2] = assay: Antifouling activity against Bugula neritina larvae assessed as inhibition of larval settlement at 25 ug/ml after 1 hr by dissecting microscopy relative to control; format: functional
[3] = Antioxidant activity assessed as DPPH radical scavenging activity at 100 ug/ml after 30 mins; format: functional
Human alphaherpesvirus 1 = assay: Antiviral activity against HSV-1 infected in African green monkey Vero cells by plaque reduction assay; format: functional; conditions: for EC50: Human alphaherpesvirus 1, Vero
Bugula neritina [4] = assay: Antifouling activity against Bugula neritina assessed as inhibition of larval settlement after 1 hr by dissecting microscopy; format: functional
Bugula neritina [5] = assay: Selectivity index, ratio of LC50 for Bugula neritina larvae to EC50 for antifouling activity against Bugula neritina larvae
[6] = Cytotoxicity against African green monkey Vero cells assessed as reduction in cell viability by MTT assay; format: cell-based; conditions: chlorocebus sabaeus
[7] = Antioxidant activity assessed as ABTS radical cation scavenging activity by measuring trolox equivalents by ABTS radical cation decolorization assay; format: functional

| Compound | inhibition at 25 µg/mL (Bugula neritina [2]) [%] | Activity [3] [%] | other results |
| --- | --- | --- | --- |
| O=C1O[C@H]([C@@H](O)CO)C(O)=C1O [ASCORBIC ACID] | – | – | IC50 [1]: 45.2 µM |
| C[C@]12CCC[C@@H](O1)c1c(cc3c(c1O)C(=O)c1c(O)cc(O)cc1C3=O)O2 | 10 to 38 | < 50 | – |
| CCCCC[C@H](OC)c1c(O)cc2c(c1O)C(=O)c1c(O)cc(O)cc1C2=O | 10 to 38 | < 50 | – |
| COC(=O)c1c(C)cc(O)cc1O [METHYL ORSELLINATE] | 10 to 38 | < 50 | – |
| Cc1cc(O)c(Oc2cc(C)cc(Oc3cc(C)cc(O)c3O)c2O)c(O)c1 | 85.3 | 81.3 to 92.8 | IC50 [1]: 18.9 µM; Activity (Human alphaherpesvirus 1): inactive; EC50 (Bugula neritina [4]): 1.59 µg/mL (≈ 4.14 µM); Selectivity Index (Bugula neritina [5]): >100 |
| Cc1c(O)cc(CC(=O)C[C@H](C)O)c(C=O)c1O | 72.4 | < 50 | EC50 (Bugula neritina [4]): 3.4 µg/mL (≈ 13.5 µM); Selectivity Index (Bugula neritina [5]): >100 |
| Cc1cc(O)cc(Oc2cc(C)c(C(=O)OCC(O)CO)c(O)c2)c1 (racemic) | 91.2 | < 50 | EC50 (Bugula neritina [4]): 1.28 µg/mL (≈ 3.67 µM); Selectivity Index (Bugula neritina [5]): >100 |
| CCCCCC(c1c(C)cc(Oc2cc(C)cc(O)c2)cc1O)c1c(O)cc2c(c1O)C(=O)c1c(O)cc(O)cc1C2=O (racemic) [listing 1 of 2 here] | 10 to 38 | – | – |
| Cc1cc(OC(=O)c2c(C)cc(O)cc2O)cc(O)c1C(=O)O [LECANORIC ACID] | 10 to 38 | < 50 | – |
| Cc1cc(O)cc(Oc2cc(C)cc(O)c2O)c1 [CORDYOL C] | 10 to 38 | 81.3 to 92.8 | IC50 [1]: 52.3 µM |
| CC(=O)CC[C@H](COC(C)=O)c1c(O)cc2c(c1O)C(=O)c1c(O)cc(O)cc1C2=O | 10 to 38 | < 50 | EC50 (Human alphaherpesvirus 1): 3.12 µM; CC50 [6]: 65.1 µM |
| CC(=O)CC[C@H](CO)c1c(O)cc2c(c1O)C(=O)c1c(O)cc(O)cc1C2=O | 10 to 38 | < 50 | Activity (Human alphaherpesvirus 1): inactive |
| CCCCCC(c1c(C)cc(Oc2cc(C)cc(O)c2)cc1O)c1c(O)cc2c(c1O)C(=O)c1c(O)cc(O)cc1C2=O (racemic) [listing 2 of 2 here] | – | < 50 | Activity [7]: 2.11 mmol/g; Activity (Human alphaherpesvirus 1): inactive |
| CCCCCC(c1c(C)cc(O)cc1O)c1c(O)cc2c(c1O)C(=O)c1c(O)cc(Oc3cc(C)cc(O)c3)cc1C2=O (racemic) [listing 1 of 2 here] | 10 to 38 | – | – |
| COC(=O)c1c(C)cc(Oc2cc(O)cc(C)c2C(=O)O)cc1O | 10 to 38 | < 50 | – |
| Cc1cc(O)cc(O)c1O | 10 to 38 | 81.3 to 92.8 | IC50 [1]: 35.1 µM |
| Cc1c(O)cc2cc(C[C@H](C)O)oc(=O)c2c1O | – | < 50 | – |
| COC(C)CC(=O)Cc1cc(O)c(C)c(O)c1C=O (racemic) | – | < 50 | – |

| Compound | inhibition at 25 µg/mL (Bugula neritina [2]) [%] | Activity [3] [%] | other results |
| --- | --- | --- | --- |
| Cc1cc(O)cc(O)c1C(=O)O [ORSELLINIC ACID] | 10 to 38 | < 50 | – |
| Cc1cc(O)c(O)c(Oc2cc(C)cc(O)c2Oc2cc(C)cc(O)c2O)c1 | 80 | 81.3 to 92.8 | IC50 [1]: 21.2 µM; Activity (Human alphaherpesvirus 1): inactive; EC50 (Bugula neritina [4]): 2.61 µg/mL (≈ 6.79 µM); Selectivity Index (Bugula neritina [5]): >100 |
| CCCCCC(c1c(C)cc(O)cc1O)c1c(O)cc2c(c1O)C(=O)c1c(O)cc(Oc3cc(C)cc(O)c3)cc1C2=O (racemic) [listing 2 of 2 here] | – | < 50 | Activity [7]: 2.27 mmol/g; Activity (Human alphaherpesvirus 1): inactive |
| Cc1cc(O)cc(Oc2cc(C)cc(O)c2)c1 [DIORCINOL] | 10 to 38 | < 50 | – |
| Cc1cc(O)c(Oc2cc(C)cc(O)c2O)c(O)c1 | 10 to 38 | 81.3 to 92.8 | IC50 [1]: 31.2 µM |
| CC(=O)CCCC(c1c(C)cc(Oc2cc(C)cc(O)c2)cc1O)c1c(O)cc2c(c1O)C(=O)c1c(O)cc(O)cc1C2=O (racemic) | – | < 50 | Activity [7]: 2.03 mmol/g; EC50 (Human alphaherpesvirus 1): 4.68 µM; CC50 [6]: 109 µM |
| C[C@H](O)CC[C@H](CO)c1c(O)cc2c(c1O)C(=O)c1c(O)cc(O)cc1C2=O | – | < 50 | EC50 (Human alphaherpesvirus 1): 6.25 µM; CC50 [6]: 50.7 µM |
| Cc1cc(O)cc(OC(=O)c2c(C)cc(O)cc2O)c1 [LECANORIN] | 10 to 38 | < 50 | – |
| O=C1c2cc(O)cc(O)c2C(=O)c2c1cc(O)c([C@@H](CO)CCO)c2O | 10 to 38 | < 50 | – |
| CCCCCC(c1c(C)cc(Oc2cc(C)cc(O)c2)cc1O)c1c(O)cc2c(c1O)C(=O)c1c(O)cc(O)cc1C2=O (stereo in doubt; (-)-7) | – | – | Activity [7]: 1.53 to 2 mmol/g |
| CCCCCC(c1c(C)cc(Oc2cc(C)cc(O)c2)cc1O)c1c(O)cc2c(c1O)C(=O)c1c(O)cc(O)cc1C2=O (stereo in doubt; (+)-7) | – | – | Activity [7]: 2.07 mmol/g |
| Cc1cc(O)cc(O)c1 [ORCINOL] | 10 to 38 | < 50 | – |
| Nc1nc2c(ncn2COCCO)c(=O)[nH]1 [ACYCLOVIR] | – | – | EC50 (Human alphaherpesvirus 1): 3 µM; CC50 [6]: > 1000 µM |
| CCCCCC(c1c(O)cc(C)cc1Oc1cc(C)cc(O)c1)c1c(O)cc2c(c1O)C(=O)c1c(O)cc(O)cc1C2=O (racemic) | – | < 50 | Activity [7]: 2.18 mmol/g; Activity (Human alphaherpesvirus 1): inactive |
| Cc1cc(O)c(Oc2cc(C)cc(O)c2Oc2cc(C)cc(O)c2O)c(O)c1 | 70.6 | 81.3 to 92.8 | IC50 [1]: 25.2 µM; Activity (Human alphaherpesvirus 1): inactive; EC50 (Bugula neritina [4]): 5.48 µg/mL (≈ 14.3 µM); Selectivity Index (Bugula neritina [5]): >100 |
| COC(=O)c1c(O)ccc2oc3cc(C)cc(O)c3c(=O)c12 | 10 to 38 | < 50 | – |
| CCCCCC(c1c(C)cc(O)cc1O)c1c(O)cc2c(c1O)C(=O)c1c(O)cc(Oc3cc(C)cc(O)c3)cc1C2=O (stereo in doubt; (-)-6) | – | – | Activity [7]: 1.65 mmol/g |

Reference: ChEMBL document CHEMBL4000243, “Anti-HSV-1, antioxidant and antifouling phenolic compounds from the deep-sea-derived fungus Aspergillus versicolor SCSIO 41502” (Bioorg Med Chem Lett, 2017)
